Several values for one entry are separate records, joined by “and”; a condition that tells them apart may be missing. Equal values may be shown once. Where a name gives a salt, the structure may show the parent alone.
Assay: Microdose study of 14C-AlphaHGA in healthy volunteers, plasma pharmacokinetics (AMS)
Assay type: in vivo, human
Protocol: In this example, the pharmacokinetics (PK) and oral bioavailability of AlphaHGA in adult healthy volunteers following a single ‘microdose’ in a sequence-randomized, cross-over study design (two periods 7 days apart) was determined. Clinical experiments were conducted with low-level radiolabelled (^14C) AlphaHGA administered intravenously (IV) orally (PO) with serial blood and urine samples were collected for concentration analysis utilizing accelerator mass spectrometry (AMS).
Accordingly, eight subjects were enrolled into a single dose cross-over study. The subjects were randomly assigned to one of two administration sequences. Subjects that were assigned to sequence 1 received AlphaHGA as an oral preparation first (Period 1) followed by the intravenous (IV) preparation 1 week later (Period 2). Subjects assigned to sequence 2 received AlphaHGA as an intravenous preparation first followed by the oral preparation 1 week later. Four subjects were assigned to sequence 1 and four subjects were assigned to sequence 2.
For both oral and IV doses subjects were administered 100 nCi (3.7 Kbq) of alphaHGA, which was determined to contain 1.602888×10ˆ6 fmol of ^14C. The specific activity of each dose was 46.619 MBq/mol (or 1.260 mCi/mol). A stock blend of ^14C-labelled alphaHGA was produced prior to the first study period. The actual formulations used for dosing were prepared on the morning prior to each study period. The infusion was a single bolus injection with both the infusion and flush were completed in less than 30 seconds.
Blood (5 ml) was collected following the administration of AlphaHGA orally or as an IV bolus at the following times: pre-dose (T=0) and 15, 30, 45, 60 minutes, and at 2, 3, 4, 6, 8, 10, 12, 16, 24 hours post-dose. All of the 224 scheduled blood samples were obtained. Blood specimens were drawn by intravenous in-dwelling catheter into 2×10 mL EDTA containing Vacutainer tubes and RBC's separated by centrifugation.
Plasma specimens (30 μL) were analyzed directly via the combustive procedure without further chemical manipulation. For the purposes of calculating ^14C concentration per volume of plasma, a general carbon content of 45% (dry mass) was applied. The urine was mixed with equal volumes (0.5 mL) of a sucrose carbon diluent solution (200 g/L) and mixed by inversion in a disposable polypropylene centrifuge tube. A 20-μL sample was graphitized for AMS analysis according to standard procedures. The mass fraction of the urine represented in the measured sample was inverted and multipled by the ^14C contents above background derived from the AMS measurement to calculate the ^14C content in the total urine void. A density value of 1 g/mL for urine was assumed to calculate its volume from the recorded masses.
Pharmacokinetic parameters were estimated by noncompartmental analysis employing the PK software WinNonlin version 4.1 (Pharsight Corporation, Palo Alto, Calif.). Statistical analyses were performed using either WinNonlin 4.1 or SPlus 2000 (Insightful Inc, Seattle, Wash.). All parameter calculations are reported from observed values and not from predicted values. However, observed and predicted values were very close and parameter estimates from both approaches were nearly equal.
. Values for the following PK parameters were estimated from plasma alphaHGA concentrations:
Maximum observed concentration (Cmax) and the time to reach Cmax (Tmax), the last quantified concentration (Clast), the time to Clast (Tlast), and time to the first quantified concentration (Tfirst) came from the experimentally observed values.
Terminal elimination rate constant (λz), was estimated from log-linear regression analysis of the apparent terminal phase of the plasma concentration-time profile. Weighting for the regression was 1/Y^2. The associated plasma half-life (T½) was calculated as T½=ln 2/λz. The point employed for estimating λz, were selected by the WinNonlin default curve stripping algorithm. […]

[1] = plasma, route iv, individual subjects 1-8, period 1 or 2
[2] = plasma, route iv, individual subjects 1-8, period 1 or 2, hydrochloride
[3] = plasma, route po, individual subjects 1-8, period 1 or 2, hydrochloride

## NC(=O)C(N)O (stereo not drawn) [AlphaHGA, α-Hydroxy-glycinamide hydrochloride]
All subjects
  AUC % Extrap: less than 20%
Following both routes of administration
  terminal elimination half-life in the plasma: approximately 10 hours
Oral administration
  absorption: rapidly and completely absorbed after oral administration
plasma, Period 1, Max
  AUC % Extrap: 17.43%
  AUCTmax: 0.02396 nM·h
  AUCinf: 0.43166 nM·h
  AUClast: 0.39184 nM·h
  Az: 0.084 h⁻¹
  Clast: 0.00462 nM
  Cmax: 0.0668 nM
  T ½: 10.32 h
  Tmax: 1.00 h
plasma, Period 1, Mean
  AUC % Extrap: 13.16%
  AUCTmax: 0.01354 nM·h
  AUCinf: 0.35555 nM·h
  AUClast: 0.30901 nM·h
  Az: 0.074 h⁻¹
  Clast: 0.0034 nM
  Cmax: 0.0477 nM
  T ½: 9.45 h
  Tmax: 0.50 h
plasma, Period 1, Min
  AUC % Extrap: 9.23%
  AUCTmax: 0.00422 nM·h
  AUCinf: 0.27962 nM·h
  AUClast: 0.24083 nM·h
  Az: 0.067 h⁻¹
  Clast: 0.00267 nM
  Cmax: 0.0337 nM
  T ½: 8.26 h
  Tmax: 0.25 h
plasma, Period 2, Max
  AUC % Extrap: 19.51%
  AUCTmax: 0.04903 nM·h
  AUCinf: 0.4907 nM·h
  AUClast: 0.46442 nM·h
  Az: 0.118 h⁻¹
  Clast: 0.00459 nM
  Cmax: 0.076 nM
  T ½: 12.80 h
  Tmax: 2.00 h
plasma, Period 2, Mean
  AUC % Extrap: 13.94%
  AUCTmax: 0.01698 nM·h
  AUCinf: 0.3847 nM·h
  AUClast: 0.33218 nM·h
  Az: 0.073 h⁻¹
  Clast: 0.00356 nM
  Cmax: 0.0574 nM
  T ½: 10.06 h
  Tmax: 0.59 h
plasma, Period 2, Min
  AUC % Extrap: 5.36%
  AUCTmax: 0.00615 nM·h
  AUCinf: 0.32388 nM·h
  AUClast: 0.27076 nM·h
  Az: 0.054 h⁻¹
  Clast: 0.00292 nM
  Cmax: 0.0392 nM
  T ½: 5.88 h
  Tmax: 0.25 h
plasma, Route iv, Max
  AUC % Extrap: 19.51%
  AUCTmax: 0.02396 nM·h
  AUCinf: 0.43166 nM·h
  AUClast: 0.39184 nM·h
  Az: 0.084 h⁻¹
  Clast: 0.00462 nM
  Cmax: 0.0722 nM
  T ½: 12.80 h
  Tmax: 0.50 h
plasma, Route iv, Mean
  AUC % Extrap: 14.04%
  AUCTmax: 0.00876 nM·h
  AUCinf: 0.36141 nM·h
  AUClast: 0.31056 nM·h
  Az: 0.070 h⁻¹
  Clast: 0.00343 nM
  Cmax: 0.0544 nM
  T ½: 10.11 h
  Tmax: 0.28 h
plasma, Route iv, Min
  AUC % Extrap: 9.23%
  AUCTmax: 0.00422 nM·h
  AUCinf: 0.27962 nM·h
  AUClast: 0.24083 nM·h
  Az: 0.054 h⁻¹
  Clast: 0.00267 nM
  Cmax: 0.0337 nM
  T ½: 8.26 h
  Tmax: 0.25 h
plasma, Route po, Max
  AUC % Extrap: 16.54%
  AUCTmax: 0.04903 nM·h
  AUCinf: 0.4907 nM·h
  AUClast: 0.46442 nM·h
  Az: 0.118 h⁻¹
  Clast: 0.00459 nM
  Cmax: 0.076 nM
  T ½: 11.29 h
  Tmax: 2.00 h
plasma, Route po, Mean
  AUC % Extrap: 13.07%
  AUCTmax: 0.02176 nM·h
  AUCinf: 0.37884 nM·h
  AUClast: 0.33063 nM·h
  Az: 0.076 h⁻¹
  Clast: 0.00353 nM
  Cmax: 0.0507 nM
  T ½: 9.40 h
  Tmax: 0.81 h
plasma, Route po, Min
  AUC % Extrap: 5.36%
  AUCTmax: 0.01199 nM·h
  AUCinf: 0.31704 nM·h
  AUClast: 0.26699 nM·h
  Az: 0.061 h⁻¹
  Clast: 0.00286 nM
  Cmax: 0.0357 nM
  T ½: 5.88 h
  Tmax: 0.50 h
[1]
  Tfirst: 0.25 h
  Tlast: 24 h
[2]
  AUCTmax: 0.00422 nM·h and 0.00683 nM·h and 0.00902 nM·h and 0.00647 nM·h and 0.02396 nM·h and 0.00615 nM·h and 0.00528 nM·h and 0.00813 nM·h
  AUCinf: 0.27962 nM·h and 0.32862 nM·h and 0.36703 nM·h and 0.32974 nM·h and 0.43166 nM·h and 0.35514 nM·h and 0.39463 nM·h and 0.40482 nM·h
  AUClast: 0.24083 nM·h and 0.29153 nM·h and 0.32782 nM·h and 0.29111 nM·h and 0.39184 nM·h and 0.28587 nM·h and 0.32585 nM·h and 0.32966 nM·h
  Clast: 0.00267 nM and 0.00304 nM and 0.00292 nM and 0.00299 nM and 0.00334 nM and 0.00375 nM and 0.00462 nM and 0.0041 nM
  Cmax: 0.0337 nM and 0.0546 nM and 0.0722 nM and 0.0517 nM and 0.0668 nM and 0.0492 nM and 0.0422 nM and 0.065 nM
  T1/2: 10.07 h and 8.46 h and 9.31 h and 8.96 h and 8.26 h and 12.80 h and 10.32 h and 12.71 h
  Tmax: 0.25 h and 0.5 h
  λz: 0.069 h⁻¹ and 0.082 h⁻¹ and 0.075 h⁻¹ and 0.077 h⁻¹ and 0.084 h⁻¹ and 0.054 h⁻¹ and 0.067 h⁻¹ and 0.055 h⁻¹
plasma, route po, individual subjects 1-8, period 1 or 2
  Tlast: 24 h
[3]
  AUCTmax: 0.0122 nM·h and 0.03149 nM·h and 0.01712 nM·h and 0.04903 nM·h and 0.02379 nM·h and 0.01199 nM·h and 0.01353 nM·h and 0.01489 nM·h
  AUCinf: 0.32094 nM·h and 0.4907 nM·h and 0.31704 nM·h and 0.41499 nM·h and 0.40394 nM·h and 0.32388 nM·h and 0.3913 nM·h and 0.36795 nM·h
  AUClast: 0.28221 nM·h and 0.46442 nM·h and 0.26699 nM·h and 0.34636 nM·h and 0.34963 nM·h and 0.27076 nM·h and 0.34145 nM·h and 0.32318 nM·h
  Clast: 0.00286 nM and 0.0031 nM and 0.00341 nM and 0.00459 nM and 0.00395 nM and 0.00326 nM and 0.00376 nM and 0.0033 nM
  Cmax: 0.0406 nM and 0.076 nM and 0.0357 nM and 0.0392 nM and 0.0494 nM and 0.0479 nM and 0.0581 nM and 0.0584 nM
  T1/2: 9.39 h and 5.88 h and 10.18 h and 10.36 h and 9.53 h and 11.29 h and 9.19 h and 9.40 h
  Tfirst: 0.25 hr (7×) and 0.5 hr
  Tmax: 0.5 h and 0.75 h and 1 h and 2 h
  λz: 0.074 hr^−1 (2×) and 0.118 hr^−1 and 0.068 hr^−1 and 0.067 hr^−1 and 0.073 hr^−1 and 0.061 hr^−1 and 0.075 hr^−1

Reference: patent US20080076824A1, “Compounds That Inhibit Replication Of Human Immunodeficiency Virus” (priority 2004, published 2008)
